{"source": "patent US20220305023A1", "about": "“Chlorophyllin Containing Pharmaceutical Composition For Prevention Of Pathogenesis Of Coronavirus Disease” (priority 2021, published 2022)", "key": {"[1]": {"assay": "28 day repeat dose toxicity", "type": "in vivo, rats", "settings": "1000 mg/kg body weight daily for 28 consecutive days", "description": "(§1) Different doses of Chlorophyllin (100 to 5000 mg/kg body weight) were given to mice and rats (6 males, 6 females) by oral gavage in an accredited facility for animal toxicity testing."}, "lymphocytes": {"system": "lymphocytes", "assay": "Phase I study: absolute lymphocyte count in blood", "type": "in vivo, human", "settings": "750 mg tablets, healthy subjects", "description": "(§2) An open label Phase I clinical study was conducted to assess pharmacodynamics of sodium copper Chlorophyllin in healthy adult, human male subjects under fasting conditions. The study was approved by Drug Controller General of India (DCGI). The trial is registered with the Clinical Trial Registry of India (CTRI/2018/09/015576). Five healthy male subjects were allowed to fast overnight and one Chlorophyllin tablet (750 mg) was administered to each subject by oral route along with ˜200 ml water. The subjects were given breakfast, lunch and snacks and a second tablet of Chlorophyllin (750 mg) was administered to each subject by oral route along with 200 ml water after 12 hr.\n(§3) Chlorophyllin tablets comprising Chlorophyllin or salts thereof (750 mg), were administered to healthy human subjects after overnight fasting. Blood samples were collected through an indwelling intravenous cannula (Venflon) placed in the fore arm vein of the subjects at different time intervals. Absolute neutrophil count (ANC) and white blood cell (WBC) counts were measured. Serum was separated and chemokine concentration in the serum was measured using cytometric bead array."}, "neutrophils": {"system": "neutrophils", "assay": "Phase I study: absolute neutrophil count (ANC) in blood", "type": "in vivo, human", "description": "as §2, §3"}, "white blood cells": {"system": "white blood cells", "assay": "Phase I study: white blood cell (WBC) count in blood", "type": "in vivo, human", "settings": "8-16 hr after first dose of 750 mg", "description": "as §2, §3"}, "[2]": {"assay": "Acute oral toxicity (oral gavage)", "type": "in vivo, mice and rats", "description": "as §1"}, "SARS-CoV-2 virus": {"system": "SARS-CoV-2 virus", "type": "cell-based"}, "[3]": {"system": "CD34+ hematopoietic stem and progenitor cells", "assay": "Phase I study: CD34+ hematopoietic stem and progenitor cells in blood by flow cytometry", "type": "in vivo, human", "settings": "750 mg tablets, five subjects", "description": "as §2\nBlood sample at each time point was also collected in K2EDTA vacutainer tube and erythrocytes were lysed using RBC lysis buffer. Then cells were stained with fixable far red live dead reagent and PE-CD34 and FITC-CD45 antibodies at 4° C. and fixed with 4% formaldehyde. The frequency of CD34+ hematopoietic stem and progenitor cells in the blood was determined by flow cytometry and FlowJo software."}, "[4]": {"assay": "Phase I study: tolerability in healthy human subjects", "type": "in vivo", "settings": "750 mg given twice a day, five subjects", "description": "as §2"}, "Vero CCL-81 cells": {"system": "Vero CCL-81 cells", "settings": "5 μM"}}, "data": [{"substance": "Sodium copper Chlorophyllin", "values": [{"measurement": "tolerability of repeat dose", "setting": "[1]", "value": "well tolerated"}, {"measurement": "increase in lymphocyte counts in human blood as compared to pre-dose value", "setting": "lymphocytes", "value": "up to 30%"}, {"measurement": "time to ANC increase after first dose", "setting": "neutrophils; 750 mg, 4 hr before second dose", "value": "≤ 8", "unit": "h"}, {"measurement": "increase in ANC relative to pre-dose value", "setting": "neutrophils; 8-16 hr after first dose of 750 mg, fasting, five subjects", "value": "12.4-32.5%"}, {"measurement": "increase in WBC count relative to pre-dose value", "setting": "white blood cells", "value": "12.8-26.5%"}, {"measurement": "signs of toxicity", "setting": "[2]; rodents, indicated doses (acute up to 5000 mg/kg; 1000 mg/kg for 28 days)", "value": "no signs of toxicity"}, {"measurement": "LD50", "setting": "[2]; rodents, oral, proposed from absence of toxicity", "value": "higher than 5000 mg/kg body weight"}, {"measurement": "tolerability of acute oral dose", "setting": "[2]; up to 5000 mg/kg body weight, oral gavage, mice and rats", "value": "well tolerated"}, {"measurement": "effect on SARS-CoV-2 virus multiplication", "setting": "SARS-CoV-2 virus; 0.1 micro molar", "value": "did not inhibit"}, {"measurement": "inhibition of SARS-CoV-2 multiplication", "setting": "SARS-CoV-2 virus; 5 micro-molar, 72 hr, Vero CCL-81 cells", "value": "~87", "unit": "%"}, {"measurement": "concentration required for ~90% inhibition of multiplication of SARS-CoV-2 virus", "setting": "SARS-CoV-2 virus; Vero CCL-81 cells, 72 hr", "value": "about 5 micro molar"}, {"measurement": "EC50", "setting": "SARS-CoV-2 virus; Vero CCL-81 cells, 72 hr, read-out: concentration required to inhibit SARS-CoV-2 multiplication by 50% (EC50)", "value": "< 1000", "unit": "nM"}, {"measurement": "effect on multiplication of SARS-CoV-2 virus", "setting": "SARS-CoV-2 virus; less than 1 micro-molar", "value": "did not significantly decrease"}, {"measurement": "relative decrease in percentage of CD34+ HPSCs in human blood as compared to pre-dose value", "setting": "[3]", "value": "50-85%"}, {"measurement": "tolerability in human subjects", "setting": "[4]", "value": "well tolerated"}, {"measurement": "cytotoxicity in the target cells", "setting": "Vero CCL-81 cells", "value": "without causing cytotoxicity"}]}]}
